Measured values published in patent publication US20230184743A1, “SCREENING METHODS TO IDENTIFY SMALL MOLECULE COMPOUNDS THAT PROMOTE OR INHIBIT THE GROWTH OF CIRCULATING TUMOR CELLS, AND USES THEREOF” (University of Southern California, priority 2020, published 2023).
Entries after “also recorded” stand apart in the source; their conditions may differ.

Tests used:
[1] = tested on: single BRx68 cells; assay: Single CTC proliferation over 24 days (AUC), BRx68 line; format: cell-based, human; settings: two batches, 200 μM-300 μM NAC, 24 days
Method: (§1) Cell culture. CTC lines were previously derived from metastatic breast cancer patients. CTC lines were cultured in ultra-low attachment plates with RPMI 1640 medium, supplemented with EGF (20 ng/mL), bFGF (20 ng/mL), 1×B27 and 1× antibiotic/antimycotic, in 4% 02 and 5% CO2. Single CTCs were cultured in GravityTRAP™ ULA 96 well Plates (PerkinElmer). Wells on the edges of the plates were not used to avoid influence from evaporation. Media with fresh compounds were exchanged every 3 days by inserting pipet tips onto the platform of the wells to prevent accidentally aspirating suspended CTCs at the bottom. CTC numbers were counted manually under an inverted microscope every 6 days.
FACS sorting. […]
(§2) Statistical analysis. […] AUC was calculated for each well in each batch, by plotting days in the x-axis and the corresponding number of cells in the y-axis, then drawing a line to connect the number of cells from the starting count day to the next count day until the end day, and finally calculating the area under this line as the sum of areas of trapezoids. […] Statistical tests were performed using R. For absolute number of cells quantification, total number of cells at end of experiment in each well in each batch was compared between treated cells and untreated control and significance was analyzed with Student t test. […]

[2] = tested on: GFP-Luciferase tagged BRx68 single clones; assay: Xenograft assay of single cell clones generated with or without NAC; format: in vivo; settings: clones generated with 300 μM NAC for 24 days vs control clones; mammary fat pad of female NSG mice
Method: Single CTC clones. NAC clones were generated by treating single CTCs with 300 μM NAC media for 24 days before switching to regular CTC media. Control single clone lines were established in the same batch using regular CTC media.
Xenograft assay and Hematoxyline & Eosin staining. Six-week old female NSG mice (Jackson Laboratory) were anesthetized with isoflurane and 20,000 GFP/luc-positive single clone cells in 100 μL of 1:1 PBS and Corning® Matrigel® Matrix (phenol-red free) were injected into the fourth mammary fat pad. To evaluate the growth of primary tumors, mice were intraperitoneally injected with 150 μL of d-Luciferin substrate at 30 mg/mL (Sid Labs), and imaged within 15 minutes. Signals from luciferase-tagged cells were monitored at day 0 after injection and weekly by in vivo imaging using IVIS Lumina II (Perkin Elmer) for 5 weeks. Mice were sacrificed after 8 weeks, and their organs were dissected and imaged. Primary tumors and organs were collected and fixed with 10% formalin overnight and sectioned for 5 μm thickness. H&E staining was performed using Varistain Gemini ES Automated Slide Stainer in USC's Histology Laboratory (HIST). Images were taken with a 20× objective in Keyence (BZ-II Analyser, Keyence).
Validation on spiked-in CTCs. To mimic the CTC isolation procedure, spiked-in experiments were performed with 3 CTC lines (BRx42, BRx50 and BRx68) into healthy donors' blood. […]

[3] = tested on: single CTCs from 4 patient-derived CTC lines (BRx07, BRx42, BRx50, and BRx68); assay: Validation of candidate compounds: single CTC proliferation over 24 days (AUC); format: cell-based, human
Method: as §1
FACS sorting. Cells were pelleted and resuspended into single cell suspension in 1% BSA in PBS buffer with 7-AAD. Live single CTCs were sorted directly into 96-well GravityTRAP™ ULA Plates using a MoFlo cell sorter (Beckman Coulter). An inverted microscope was used to manually confirm that there was 1 CTC per well, 1 hour after sorting.
Compounds screening. Compounds were from the StemSelect library obtained from the Choi Family Therapeutic Screening Facility at the Eli and Edythe Broad CIRM Center for Regenerative Medicine and Stem Cell Research at USC. Each compound was given a code to ensure unbiased assessment and blinded to the investigators. Compound information is listed in Appendix, at Table 1 of US Provisional Application No. U.S. 62/990,445, incorporated herein by reference). In the first-round screening, compounds were used with […] concentration. Stocks of compounds (10 mM concentration in DMSO) were stored in aliquots at −80° C. All compounds were thawed and refrozen for a maximum of 2 times. In the second-round validation, fresh compounds were dissolved in DMSO (Millipore sigma), and aliquots were stored at −20° C. and used only once without refreezing. Only wells started from single cells on day 0 after sorting were used in the screening experiment. Data collection was done in batches.
as §2, with “test. For other experiments, data were analyzed with Student t test, and represent the means±SEM of at least triplicate samples or averages ±SD of independent analyses, as indicated.” for “test.”

CC(=O)N[C@@H](CS)C(=O)O [NAC, N-acetyl-L-cysteine]
single CTC proliferation at various NAC concentrations [1]: most significant effect in promoting single CTC proliferation
tumorigenicity of single cell clones (tumor growth kinetics and histology) [2]: dose not change the tumorigenicity; also recorded: did not significantly affect
additional growth advantages from treatment once a single cell colony reaches a critical size ([3]; after initial expansion from single CTCs): does not seem to confer additional growth advantages
single CTC expansion compared to controls ([3]; all 4 CTC lines, NAC 300 μM, P1C2 1 μM or 0.5 μM, 24 days): promote growth of single CTCs; also recorded: statistically significant improvement
